Where two headings read alike, the source gives them in different places.
Target: HCV RNA-dependent RNA polymerase NS5B (Δ21) (Hepatitis C virus genotype 1b, UniProt P26663)
Experiment: Assay for HCV RNA-dependent RNA polymerase activity (SPA, [3H]-GTP incorporation)
Type: biochemical
Details: 50 nM NS5B (Δ21)
Summary of the method: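 NS5B (Δ21), 50 nM, was incubated 3 h at room temperature with biotinylated oligoG12/polyC template, 5 μM GTP plus [3H]-GTP, in HEPES pH 7.3 with MgCl2 and NaCl. [3H]-GTP incorporation was read by streptavidin SPA. IC50 came from single experiments across 11 two-fold dilutions (0.05–50 μM).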

[1] = Δ21 Activity (IC50 μM), class symbols
[2] = read-out: Δ21 Activity (IC50 μM), class symbols

HCV RNA-dependent RNA polymerase NS5B (Δ21), sequence (P26663 2420-2989, stated change not applied): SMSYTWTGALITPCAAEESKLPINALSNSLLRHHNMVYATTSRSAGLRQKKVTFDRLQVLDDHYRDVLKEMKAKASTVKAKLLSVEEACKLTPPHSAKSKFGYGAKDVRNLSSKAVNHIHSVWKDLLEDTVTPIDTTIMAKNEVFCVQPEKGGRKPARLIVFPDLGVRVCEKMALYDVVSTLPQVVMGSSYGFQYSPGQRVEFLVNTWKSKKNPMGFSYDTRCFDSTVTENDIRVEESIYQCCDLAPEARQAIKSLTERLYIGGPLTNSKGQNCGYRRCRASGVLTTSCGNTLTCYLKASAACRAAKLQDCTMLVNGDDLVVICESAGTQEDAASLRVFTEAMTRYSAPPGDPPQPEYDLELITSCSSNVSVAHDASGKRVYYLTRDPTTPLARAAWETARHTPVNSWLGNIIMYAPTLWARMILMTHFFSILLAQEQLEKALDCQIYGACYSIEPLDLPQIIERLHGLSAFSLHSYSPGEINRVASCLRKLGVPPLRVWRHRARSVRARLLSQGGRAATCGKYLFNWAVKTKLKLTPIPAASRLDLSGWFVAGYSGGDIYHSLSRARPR

## O=C(Cn1nc(C(=O)O)cc1C(=O)N[C@H]1CCCC[C@@H]1OCc1ccccc1)NC1CCC[C@@H]1Sc1ccccc1 (stereo partly shown) [Compound 169]
[1]
  IC50: > 1 µM

## CN(C)c1cccc2c(S(=O)(=O)NCCNC(=O)c3cc(C(=O)N[C@H]4CCCC[C@@H]4OCc4ccccc4)n(CC(=O)N[C@H]4CCCC[C@@H]4OCc4ccccc4)n3)cccc12 [Compound 64]
[2]
  IC50: 0.1 to 1 µM

## Cc1ccc(OCC2CCCCC2)c(NC(=O)c2cc(C(=O)Nc3nnn[nH]3)nn2CC(=O)N[C@H]2CCCC[C@@H]2OCc2ccccc2)c1 [Compound 125]
[2]
  IC50: 0.1 to 1 µM

## CN(C)S(=O)(=O)Nc1cc(C(=O)N[C@H]2CCCC[C@@H]2OCc2ccccc2)n(CC(=O)N[C@H]2CCCC[C@@H]2OCc2ccccc2)n1 [Compound 45]
[1]
  IC50: 0.05 to 0.1 µM

## N#Cc1cc(C(=O)N[C@H]2CCCC[C@@H]2OCc2ccccc2)n(CC(=O)N[C@H]2CCCC[C@@H]2OCc2ccccc2)n1 (stereo in doubt) [Compound 187, 2-[(2-benzyloxy-cyclohexylcarbamoyl)-methyl]-5-cyano-2H-pyrazole-3-carboxylic acid (2-benzyloxy-cyclohexyl)-amide]
[1]
  IC50: > 1 µM

## CC(CNC(=O)c1cc(C(=O)N[C@H]2CCCC[C@@H]2OCc2ccccc2)n(CC(=O)N[C@H]2CCCC[C@@H]2OCc2ccccc2)n1)c1ccccc1 (stereo partly shown) [Compound 117]
[2]
  IC50: 0.1 to 1 µM

## O=C(Cn1nc(NS(=O)(=O)c2cccc(Br)c2)cc1C(=O)N[C@H]1CCCC[C@@H]1OCc1ccccc1)N[C@H]1CCCC[C@@H]1OCc1ccccc1 [Compound 36]
[1]
  IC50: 0.05 to 0.1 µM

## O=C(Cn1nc(NS(=O)(=O)c2ccc(Br)cc2)cc1C(=O)N[C@H]1CCCC[C@@H]1OCc1ccccc1)N[C@H]1CCCC[C@@H]1OCc1ccccc1 [Compound 13]
[1]
  IC50: < 0.05 µM

## O=C(Cn1nc(-c2cccs2)cc1C(=O)N[C@H]1CCCC[C@@H]1OCc1ccccc1)N[C@H]1CCCC[C@@H]1OCc1ccccc1 [Compound 170]
[1]
  IC50: > 1 µM

## CCOC(CCCNC(=O)c1cc(C(=O)N[C@H]2CCCC[C@@H]2OCc2ccccc2)n(CC(=O)NC2CCCC[C@@H]2OCc2ccccc2)n1)OCC (stereo partly shown) [Compound 195]
[1]
  IC50: > 1 µM

## CC(NC(=O)c1cc(C(=O)N[C@H]2CCCC[C@@H]2OCc2ccccc2)n(CC(=O)N[C@H]2CCCC[C@@H]2OCc2ccccc2)n1)c1ccccc1 (stereo partly shown) [Compound 95]
[2]
  IC50: 0.1 to 1 µM

## C[C@H](NC(=O)c1cc(C(=O)N[C@H]2CCCC[C@@H]2OCc2ccccc2)n(CC(=O)N[C@H]2CCCC[C@@H]2OCc2ccccc2)n1)c1cccc2ccccc12 [Compound 27]
[1]
  IC50: 0.05 to 0.1 µM

## O=C(Cn1nc(C(=O)NCc2ccncc2)cc1C(=O)N[C@H]1CCCC[C@@H]1OCc1ccccc1)N[C@H]1CCCC[C@@H]1OCc1ccccc1 [Compound 138]
[2]
  IC50: 0.1 to 1 µM

## O=C(O)c1cc(C(=O)N[C@H]2CCCC[C@@H]2OCc2ccccc2)n(CS(=O)(=O)N[C@H]2CCCC[C@@H]2OCc2ccccc2)n1 [Compound 57]
[2]
  IC50: 0.1 to 1 µM

## CN(Cc1cccc2ccccc12)C(=O)c1cc(C(=O)N[C@H]2CCCC[C@@H]2OCc2ccccc2)n(CC(=O)N[C@H]2CCCC[C@@H]2OCc2ccccc2)n1 [Compound 130]
[2]
  IC50: 0.1 to 1 µM

## O=C(Cn1nc(C(=O)O)cc1C(=O)N[C@H]1CCCC[C@@H]1OCc1ccccc1)NC1CCCC[C@@H]1N1CCOCC1 (stereo partly shown) [Compound 211]
[1]
  IC50: > 1 µM

## COc1ccc(NC(=O)c2cc(C(=O)Nc3ccccc3OCc3ccccc3)n(CC(=O)N[C@H]3CCCC[C@@H]3OCc3ccccc3)n2)cc1 [Compound 29]
[1]
  IC50: 0.05 to 0.1 µM

## O=C(Cn1nc(C(=O)NCCCCCC(=O)ON2C(=O)CCC2=O)cc1C(=O)N[C@H]1CCCC[C@@H]1OCc1ccccc1)N[C@H]1CCCC[C@@H]1OCc1ccccc1 [Compound 151]
[2]
  IC50: 0.1 to 1 µM

## COc1ccc(CNC(=O)c2cc(C(=O)N[C@H]3CCCC[C@@H]3OCc3ccccc3)n(CC(=O)N[C@H]3CCCC[C@@H]3OCc3ccccc3)n2)c(OC)c1 [Compound 28]
[1]
  IC50: 0.05 to 0.1 µM

## O=C(Cn1nc(C(=O)O)nc1C(=O)Nc1ccccc1OCC1CCCCC1)N[C@H]1CCCC[C@@H]1OCc1ccccc1 [Compound 59]
[2]
  IC50: 0.1 to 1 µM

## N#CNC(=O)c1cc(C(=O)N[C@H]2CCCC[C@@H]2OCc2ccccc2)n(CC(=O)N[C@H]2CCCC[C@@H]2OCc2ccccc2)n1 [Compound 15]
[1]
  IC50: < 0.05 µM

## CC(C)(C)c1ccc(S(=O)(=O)Nc2cc(C(=O)N[C@H]3CCCC[C@@H]3OCc3ccccc3)n(CC(=O)N[C@H]3CCCC[C@@H]3OCc3ccccc3)n2)cc1 [Compound 87]
[2]
  IC50: 0.1 to 1 µM

## CCOC(=O)c1cc(C(=O)N[C@H]2CCCC[C@@H]2OCc2ccccc2)n(CC(=O)N[C@H]2CCCC[C@@H]2OCc2ccccc2)n1 [Compound 49]
[2]
  IC50: 0.1 to 1 µM

## CON=Cc1cc(C(=O)N[C@H]2CCCC[C@@H]2OCc2ccccc2)n(CC(=O)N[C@H]2CCCC[C@@H]2OCc2ccccc2)n1 [Compound 162]
[2]
  IC50: 0.1 to 1 µM

## CCOC(=O)c1cc(C(=O)N[C@H]2CCCC[C@@H]2OCc2ccccc2)n(CC(=O)Nc2ccc3c(c2)OCO3)n1 [Compound 193]
[1]
  IC50: > 1 µM

## Cc1ccc(OCC2CC2)c(NC(=O)c2cc(C(=O)O)nn2CC(=O)N[C@H]2CCCC[C@@H]2OCc2ccccc2)c1 [Compound 76]
[2]
  IC50: 0.1 to 1 µM

## COc1ccc(CNC(=O)c2cc(C(=O)N[C@H]3CCCC[C@@H]3OCc3ccccc3)n(CC(=O)N[C@H]3CCCC[C@@H]3OCc3ccccc3)n2)cc1 [Compound 40]
[1]
  IC50: 0.05 to 0.1 µM

## O=C(Cn1nc(C(=O)NCCO)cc1C(=O)N[C@H]1CCCC[C@@H]1OCc1ccccc1)N[C@H]1CCCC[C@@H]1OCc1ccccc1 [Compound 191]
[1]
  IC50: > 1 µM

## O=C(Cn1nc(NC(=O)c2ccccc2)cc1C(=O)N[C@H]1CCCC[C@@H]1OCc1ccccc1)N[C@H]1CCCC[C@@H]1OCc1ccccc1 [Compound 91]
[2]
  IC50: 0.1 to 1 µM

## O=C(Cn1nc(-c2nnn[nH]2)cc1C(=O)N[C@H]1CCCC[C@@H]1OCc1ccccc1)N[C@H]1CCCC[C@@H]1OCc1ccccc1 (stereo in doubt) [Compound 18, 2-[(2-benzyloxy-cyclohexylcarbamoyl)-methyl]-5-(1H-tetrazol-5-yl)-2H-pyrazole-3-carboxylic acid (2-benzyloxy-cyclohexyl)-amide]
[1]
  IC50: 0.05 to 0.1 µM

## O=C(Cn1nc(NC(=O)C(F)(F)F)cc1C(=O)N[C@H]1CCCC[C@@H]1OCc1ccccc1)N[C@H]1CCCC[C@@H]1OCc1ccccc1 [Compound 75]
[2]
  IC50: 0.1 to 1 µM

## O=C(Cn1nc(C(=O)N2CCCC3CC=CC=C32)cc1C(=O)N[C@H]1CCCC[C@@H]1OCc1ccccc1)N[C@H]1CCCC[C@@H]1OCc1ccccc1 (stereo partly shown) [Compound 86]
[2]
  IC50: 0.1 to 1 µM

## COc1ccc(NC(=O)c2cc(C(=O)O)nn2CC(=O)N[C@H]2CCCC[C@@H]2OCc2ccccc2)c(OCc2ccccc2)c1 [Compound 201]
[1]
  IC50: > 1 µM

## Cc1ccc(OCn2nc(C)cc2C)c(NC(=O)c2cc(C(=O)O)nn2CC(=O)N[C@H]2CCCC[C@@H]2OCc2ccccc2)c1 [Compound 208]
[1]
  IC50: > 1 µM

## O=C(Cn1nc(C(=O)O)cc1C(=O)Nc1cc(C(F)(F)F)ccc1OCc1ccccc1)N[C@H]1CCCC[C@@H]1OCc1ccccc1 [Compound 14]
[1]
  IC50: < 0.05 µM

## O=C(Cn1nc(C(=O)O)cc1C(=O)Nc1ccc(F)cc1OCC1CCCCC1)N[C@H]1CCCC[C@@H]1OCc1ccccc1 [drawing 249]
Δ21 Activity (IC50 μM), numeric values
  IC50: 0.035 µM

## CNC(=O)c1cc(C(=O)N[C@H]2CCCC[C@@H]2OCc2ccccc2)n(CC(=O)N[C@H]2CCCC[C@@H]2OCc2ccccc2)n1 [Compound 145]
[2]
  IC50: 0.1 to 1 µM

## O=C(Cn1nc(NC(=O)NC2CCCCC2)cc1C(=O)N[C@H]1CCCC[C@@H]1OCc1ccccc1)N[C@H]1CCCC[C@@H]1OCc1ccccc1 [Compound 118]
[2]
  IC50: 0.1 to 1 µM

## CCOC(=O)c1cc(C(=O)N[C@H]2CCCC[C@@H]2OCc2ccccc2)n(CC(=O)Nc2cc(C)ccc2OCC2CCC2)n1 [Compound 206]
[1]
  IC50: > 1 µM

## CCOC(=O)CNC(=O)Nc1cc(C(=O)N[C@H]2CCCC[C@@H]2OCc2ccccc2)n(CC(=O)N[C@H]2CCCC[C@@H]2OCc2ccccc2)n1 [Compound 183]
[1]
  IC50: > 1 µM

## CC(=O)Nc1ccc(S(=O)(=O)Nc2cc(C(=O)N[C@H]3CCCC[C@@H]3OCc3ccccc3)n(CC(=O)N[C@H]3CCCC[C@@H]3OCc3ccccc3)n2)cc1 [Compound 82]
[2]
  IC50: 0.1 to 1 µM

## O=C(Cn1nc(C(=O)NCc2ccccc2Cl)cc1C(=O)N[C@H]1CCCC[C@@H]1OCc1ccccc1)N[C@H]1CCCC[C@@H]1OCc1ccccc1 [Compound 81]
[2]
  IC50: 0.1 to 1 µM

## Cc1ccc(OCC2CCC2)c(NC(=O)Cn2nc(C(=O)O)cc2C(=O)N[C@H]2CCCC[C@@H]2OCc2ccccc2)c1 [Compound 43]
[1]
  IC50: 0.05 to 0.1 µM

## O=C(Cn1nc(NC(=O)NCc2ccccc2)cc1C(=O)N[C@H]1CCCC[C@@H]1OCc1ccccc1)N[C@H]1CCCC[C@@H]1OCc1ccccc1 [Compound 121]
[2]
  IC50: 0.1 to 1 µM

## N#Cc1ccc(NNC(=O)c2cc(C(=O)N[C@H]3CCCC[C@@H]3OCc3ccccc3)n(CC(=O)N[C@H]3CCCC[C@@H]3OCc3ccccc3)n2)cc1 [Compound 154]
[2]
  IC50: 0.1 to 1 µM

## O=C(Cn1nc(C(=O)O)cc1C(=O)N[C@H]1CCCC[C@@H]1OCc1ccccc1)N[C@H]1CCCC[C@@H]1NCc1ccccc1 [Compound 166]
[2]
  IC50: 0.1 to 1 µM

## O=C(Cn1nc(CO)cc1C(=O)N[C@H]1CCCC[C@@H]1OCc1ccccc1)N[C@H]1CCCC[C@@H]1OCc1ccccc1 [Compound 161]
[2]
  IC50: 0.1 to 1 µM

## CC(C)(C)OC(=O)Nc1cc(C(=O)N[C@H]2CCCC[C@@H]2OCc2ccccc2)n(CC(=O)N[C@H]2CCCC[C@@H]2OCc2ccccc2)n1 [Compound 172]
[1]
  IC50: > 1 µM

## O=C(Cn1nc(C(=O)NCC2CC2)cc1C(=O)N[C@H]1CCCC[C@@H]1OCc1ccccc1)N[C@H]1CCCC[C@@H]1OCc1ccccc1 [Compound 100]
[2]
  IC50: 0.1 to 1 µM

## O=C(Cn1nc(C(=O)NCCCn2ccnc2)cc1C(=O)N[C@H]1CCCC[C@@H]1OCc1ccccc1)N[C@H]1CCCC[C@@H]1OCc1ccccc1 [Compound 188]
[1]
  IC50: > 1 µM

## O=C(Cn1nc(C(=O)NCCc2cccc(Cl)c2)cc1C(=O)N[C@H]1CCCC[C@@H]1OCc1ccccc1)N[C@H]1CCCC[C@@H]1OCc1ccccc1 [Compound 94]
[2]
  IC50: 0.1 to 1 µM

## CS(=O)(=O)Nc1cc(C(=O)N[C@H]2CCCC[C@@H]2OCc2ccccc2)n(CC(=O)N[C@H]2CCCC[C@@H]2OCc2ccccc2)n1 [Compound 60]
[2]
  IC50: 0.1 to 1 µM
